Experimental data reported in article PMC9403976, “Elucidating the path to Plasmodium prolyl-tRNA synthetase inhibitors that overcome halofuginone resistance” (Nature Communications, 2022).
Values joined by “and” are separate entries in the source; they are usually repeats but may differ in a detail not shown here. Identical values can stand only once. Like-named read-outs stand apart in the source and are kept apart here.

How the values were obtained:
P. falciparum Dd2-2D4 = assay: P. falciparum asexual blood stage (ABS) growth assay, SYBR Green, 72 h, wild-type parasites; type: cell-based, Plasmodium falciparum; details: for EC50: Plasmodium falciparum, DD2
Description: This assay was performed as previously described[8]. In short, P. falciparum erythrocytic-stage parasites at 1% parasitemia and 1% hematocrit in RPMI + 0.5% Albumax were seeded at 40 μL/well in 384-well plates with test compounds in triplicate, dose-response format with 10 μM dihydroartemisinin as a kill-control and blank (no compound) wells as a growth-control. […] After 72 h, growth was quantified by measuring fluorescence (Molecular Devices SpectraMax iD5) following SYBR Green 1 staining. Data were analyzed in Excel and plotted in PRISM (V. 8.4.3–9.1.0, GraphPad).

HsProRS = HsProRS (Homo sapiens, UniProt P07814); assay: TR-FRET ligand displacement assay with tracer MAT379 (CoraFluor-1-Halo and anti-His6 antibody formats); type: binding; parameters: made in house; host or cells: E. coli SoluBL-21
HsProRS, sequence (P07814 996-1512): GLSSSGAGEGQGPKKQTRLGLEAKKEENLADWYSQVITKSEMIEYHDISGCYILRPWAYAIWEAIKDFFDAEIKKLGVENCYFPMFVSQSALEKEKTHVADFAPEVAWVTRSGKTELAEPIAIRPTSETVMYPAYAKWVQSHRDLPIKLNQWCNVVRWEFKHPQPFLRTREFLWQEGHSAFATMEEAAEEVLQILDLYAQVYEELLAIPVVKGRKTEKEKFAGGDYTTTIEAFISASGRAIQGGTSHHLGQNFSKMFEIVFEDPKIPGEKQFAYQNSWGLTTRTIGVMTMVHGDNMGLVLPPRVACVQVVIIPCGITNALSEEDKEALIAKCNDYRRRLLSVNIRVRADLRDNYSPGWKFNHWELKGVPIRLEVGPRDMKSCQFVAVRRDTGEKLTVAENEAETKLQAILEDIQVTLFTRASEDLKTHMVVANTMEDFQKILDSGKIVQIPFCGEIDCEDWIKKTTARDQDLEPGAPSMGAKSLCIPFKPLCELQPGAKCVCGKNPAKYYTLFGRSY

[1] = tested on: HFGR-I P. falciparum (elevated proline homeostasis and PfcProRS^L482H); assay: P. falciparum ABS growth assay, SYBR Green, 72 h, HFGR-I parasites; type: cell-based, Plasmodium falciparum; details: for EC50: Plasmodium falciparum, DD2, read-out: Dd2 (EC50 [nM]) HFGR1 mean
Excerpt: (§1) Parasites were maintained under standard culture conditions as described previously[56],[57]. […] The P. falciparum Dd2 cell lines used in this study (Dd2-2D4, halofuginone-induced, and HFGR-I) have previously undergone whole genome sequencing in our labs. They were also routinely assayed and EC50 values determined using the ABS growth assay (see below) with a panel of standard antimalarial compounds, including halofuginone which has differential activity for the three Dd2 lines used in these experiments. Data were cross-referenced for consistency with literature reported values and data previously acquired in the lab.
(§2) This assay was performed as previously described. In short, P. falciparum erythrocytic-stage parasites at 1% parasitemia and 1% hematocrit in RPMI + 0.5% Albumax were seeded at 40 μL/well in 384-well plates with test compounds in triplicate, dose-response format with 10 μM dihydroartemisinin as a kill-control and blank (no compound) wells as a growth-control. […] After 72 h, growth was quantified by measuring fluorescence (Molecular Devices SpectraMax iD5) following SYBR Green 1 staining. Data were analyzed in Excel and plotted in PRISM (V. 8.4.3–9.1.0, GraphPad).

[2] = tested on: halofuginone-induced P. falciparum (elevated proline homeostasis); assay: P. falciparum ABS growth assay, SYBR Green, 72 h, halofuginone-induced parasites; type: cell-based, Plasmodium falciparum; details: for EC50: Plasmodium falciparum, DD2
Excerpt: as §1, §2

PfcProRS = biological target: T1, PfcProRS (Plasmodium falciparum, UniProt Q8I5R7); type: binding; details: for Normalized response, dose-response replicates (SI Fig 14): replicates 1-3; for PfcProRS -- best Kd: SI Fig 16a, values on -log scale
T1 construct: made in house; host or cells: E. coli SoluBL-21
T1 sequence (Q8I5R7 249-746): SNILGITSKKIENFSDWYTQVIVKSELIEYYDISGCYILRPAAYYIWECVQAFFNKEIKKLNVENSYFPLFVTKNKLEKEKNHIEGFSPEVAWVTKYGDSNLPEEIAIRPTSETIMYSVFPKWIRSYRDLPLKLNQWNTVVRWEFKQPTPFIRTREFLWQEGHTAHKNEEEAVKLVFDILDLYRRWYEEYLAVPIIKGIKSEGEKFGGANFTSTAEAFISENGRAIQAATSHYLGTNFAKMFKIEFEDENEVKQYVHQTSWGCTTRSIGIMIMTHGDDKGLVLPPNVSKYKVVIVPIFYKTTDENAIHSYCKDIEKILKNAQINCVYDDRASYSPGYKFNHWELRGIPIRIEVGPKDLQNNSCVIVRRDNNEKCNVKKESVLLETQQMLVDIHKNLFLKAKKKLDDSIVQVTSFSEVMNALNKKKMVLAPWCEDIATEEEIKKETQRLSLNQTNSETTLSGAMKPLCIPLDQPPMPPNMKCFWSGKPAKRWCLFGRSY

[3] = HsProRS (KD [nM]) + 100 μM proline mean, + 100 μM proline
[4] = SI Fig 16b, values on -log scale, read-out: ABS - Dd2-2D4 (converted)

Structure (SMILES) | Kd (HsProRS; [3]) | EC50 [1] | EC50 (P. falciparum Dd2-2D4; [4]) | Normalized response, dose-response replicates (SI Fig 14) (PfcProRS; Log[inhibitor] (M) -5.000) | Normalized response, dose-response replicates (SI Fig 14) (PfcProRS; Log[inhibitor] (M) -5.301) | Normalized response, dose-response replicates (SI Fig 14) (PfcProRS; Log[inhibitor] (M) -5.601) | Normalized response, dose-response replicates (SI Fig 14) (PfcProRS; Log[inhibitor] (M) -5.904) | Normalized response, dose-response replicates (SI Fig 14) (PfcProRS; Log[inhibitor] (M) -6.208) | Normalized response, dose-response replicates (SI Fig 14) (PfcProRS; Log[inhibitor] (M) -6.509) | Normalized response, dose-response replicates (SI Fig 14) (PfcProRS; Log[inhibitor] (M) -6.796) | Normalized response, dose-response replicates (SI Fig 14) (PfcProRS; Log[inhibitor] (M) -7.108) | Normalized response, dose-response replicates (SI Fig 14) (PfcProRS; Log[inhibitor] (M) -7.409) | Normalized response, dose-response replicates (SI Fig 14) (PfcProRS; Log[inhibitor] (M) -7.710) | Normalized response, dose-response replicates (SI Fig 14) (PfcProRS; Log[inhibitor] (M) -8.000) | Normalized response, dose-response replicates (SI Fig 14) (PfcProRS; Log[inhibitor] (M) -8.301) | Normalized response, dose-response replicates (SI Fig 14) (PfcProRS; Log[inhibitor] (M) -8.602) | Normalized response, dose-response replicates (SI Fig 14) (PfcProRS; Log[inhibitor] (M) -9.000) | Normalized response, dose-response replicates (SI Fig 14) (PfcProRS; Log[inhibitor] (M) -9.301) | PfcProRS -- best Kd (PfcProRS) | other results
CC(C)N(C(=O)Nc1nccnc1C(=O)NC1Cc2ccccc2C1)C(C)C [MAT107 (5)] | 1020 nM | 6850 nM | – | – | – | – | – | – | – | – | – | – | – | – | – | – | – | – | – | % signal at 10 μM, wildtype (Dd2-2D4) (P. falciparum Dd2-2D4; wildtype (Dd2-2D4), 10 μM): 80.9%; IC50 (HsProRS): > 10 µM; HsProRS % signal at 10 μM (HsProRS; no added proline/ATP (-), 10 μM): 63.6%; EC50 ([2]; halofuginone-induced, bound given in μM, read-out: Dd2 EC50 halofuginone-induced, bound): > 10 µM; % signal at 10 μM, halofuginone-induced ([2]; halofuginone-induced, 10 μM): 58.7%
Nc1ncnc2c1ncn2[C@@H]1O[C@H](COS(=O)(=O)NC(=O)[C@H]2CCCN2)[C@@H](O)[C@H]1O [D-ProSA, reference compound] | – | 2430 nM | 2550 nM | – | – | – | – | – | – | – | – | – | – | – | – | – | – | – | – | EC50 (P. falciparum Dd2-2D4; read-out: Dd2 (EC50 [nM]) wildtype (Dd2-2D4) mean): 2550 nM; EC50 ([2]; read-out: Dd2 (EC50 [nM]) halofuginone-induced mean): 2.73 µM
NCCCCCC(=O)NC1CCN(C(=O)Nc2nccnc2C(=O)NC2Cc3ccccc3C2)CC1 [compound 42] | 780 nM | – | 3120 nM | 2.49E-01 and 1.76E-01 and 2.08E-01 | 3.00E-01 and 2.27E-01 and 1.95E-01 | 3.22E-01 and 3.31E-01 and 4.26E-01 | 5.98E-01 and 5.09E-01 and 6.07E-01 | 6.69E-01 and 7.19E-01 and 7.06E-01 | 8.50E-01 and 8.42E-01 and 7.76E-01 | 8.57E-01 and 7.95E-01 and 8.50E-01 | 9.38E-01 and 9.24E-01 and 9.33E-01 | 8.48E-01 and 9.09E-01 and 8.32E-01 | 1.01E+00 and 1.02E+00 and 9.56E-01 | 9.91E-01 and 1.13E+00 and 9.71E-01 | 9.70E-01 and 1.02E+00 and 1.00E+00 | 1.01E+00 and 9.47E-01 and 9.02E-01 | 1.03E+00 and 8.54E-01 and 9.74E-01 | 1.02E+00 and 9.76E-01 and 9.47E-01 | 6.530 | Kd (HsProRS; HsProRS (KD [nM]) mean, no added proline/ATP (-)): 674 nM; dose-response value, Replicates 1-3 (SI Fig 2f) ([1]; Log[inhibitor] (M) -8.699): 97
CC(C)(C)OC(=O)NCCCCCC(=O)NC1CCN(C(=O)Nc2nccnc2C(=O)NC2Cc3ccccc3C2)CC1 [compound 41] | 561 nM | – | 2110 nM | 2.54E-01 and 1.79E-01 and 1.37E-01 | 2.59E-01 and 1.90E-01 and 1.97E-01 | 2.56E-01 and 2.59E-01 and 2.72E-01 | 5.14E-01 and 5.00E-01 and 4.61E-01 | 7.49E-01 and 5.18E-01 and 5.00E-01 | 8.38E-01 and 7.48E-01 and 7.12E-01 | 9.37E-01 and 8.75E-01 and 9.23E-01 | 9.89E-01 and 8.01E-01 and 8.98E-01 | 9.10E-01 and 9.82E-01 and 9.58E-01 | 9.67E-01 and 1.08E+00 and 8.83E-01 | 9.89E-01 and 1.01E+00 and 9.34E-01 | 1.15E+00 and 9.52E-01 and 9.87E-01 | 1.13E+00 and 1.02E+00 and 1.04E+00 | 9.78E-01 and 9.94E-01 and 1.01E+00 | 1.02E+00 and 9.71E-01 and 8.87E-01 | 6.740 | Kd (HsProRS; HsProRS - best Kd, SI Fig 16a, values on -log scale): 139 nM; dose-response value, Replicates 1-3 (SI Fig 2f) ([1]; Log[inhibitor] (M) -6.638): 97
